The results in this text go back to patent US20240226098A1, “COMPOUNDS AND METHODS FOR MODULATING SPLICING” (REMIX THERAPEUTICS INC., priority 2020, published 2024).

Common to all, as to type: cell-based
In one assay the test system is HTT CJ mRNA. Kind of assay: Gene panel canonical junction qPCR assay: decrease in HTT CJ mRNA. To be noted: protocol as for Table 2, read-out: HTT (IC50, decrease in CJ mRNA levels). How it is done: (§1) Compounds described herein were used to modulate RNA transcript abundance in cells. The expression of a target mRNA was measured by detecting the formation of an exon-exon junction in the canonical transcript (CJ). A compound mediated exon-inclusion event was detected by observing an increase in formation of a new junction with an alternative exon (AJ). Real-time qPCR assays were used to detect these splicing switches and interrogate the potency of various compounds towards different target genes. A high-throughput real time quantitative PCR (RT-qPCR) assay was developed to measure these two isoforms of the mRNA (CJ and AJ) for an exemplary gene, HTT, together with a control housekeeping gene, GAPDH or GUSB or PPIA, used for normalization. Briefly, the A673 or K562 cell line was treated with various compounds described herein (e.g., compounds of Formula (I)). After treatment, the levels of the HTT mRNA targets were determined from each sample of cell lysate by cDNA synthesis followed by qPCR.
(§2) The A673 cell line was cultured in DMEM with 10% FBS. Cells were diluted with full growth media and plated in a 96-well plate (15,000 cells in 100 ul media per well). The plate was incubated at 37° C. with 5% CO2 for 24 hours to allow cells to adhere. An 11-point 3-fold serial dilution of the compounds was made in DMSO then diluted in media in an intermediate plate. Compounds were transferred from the intermediate plate to the cell plate with the top dose at a final concentration of 10 uM in the well. Final DMSO concentration was kept at or below 0.25%. The cell plate was returned to the incubator at 37° C. with 5% CO2 for an additional 24 hours.
(§3) The K562 cell line was cultured in IMDM with 10% FBS. For K562, cells were diluted with full growth media and plated in either a 96-well plate (50,000 cells in 50 uL media per well) or a 384-well plate (8,000-40,000 cells in 45 uL media per well). An 11-point 3-fold serial dilution of the compounds were made in DMSO then diluted in media in an intermediate plate. Compound was transferred from the intermediate plate to the cell plate with the top dose at a final concentration of 10 uM in the well. Final DMSO concentration was kept at or below 0.25%. Final volume was 100 uL for 96-well plate and 50 uL for 384-well plate. The cell plate was then placed in an incubator at 37° C. with 5% CO2 for 24 hours.
(§4) The cells were then gently washed with 50 uL-100 uL cold PBS before proceeding to addition of lysis buffer. 30 uL-50 uL of room temperature lysis buffer with DNAse I (and optionally RNAsin) was added to each well. Cells were shaken/mixed thoroughly at room temperature for 5-10 minutes for lysis to take place and then 3 uL-5 uL of room temperature stop solution was added and wells were shaken/mixed again. After 2-5 minutes, the cell lysate plate was transferred to ice for RT-qPCR reaction setup. The lysates could also be frozen at −80° C. for later use.
(§5) In some cases, a direct lysis buffer was used. An appropriate volume of 3× lysis buffer (10 mM Tris, 150 mM NaCl, 1.5%-2.5% Igepal and 0.1-1 U/uL RNAsin, pH 7.4) was directly added to either K562 or A673 cells in media and mixed by pipetting 3 times. The plates were then incubated at room temperature with shaking/rocking for 20-50 minutes to allow for lysis to take place. After this time, the cell lysate plate was transferred to ice to set up for the RT-qPCR reactions. The lysates could also be frozen at −80° C. for later use.
(§6) To set up 10 uL RT-qPCR reactions, cell lysates were transferred to 384-well qPCR plates containing the master mix according to the table below. The plates were sealed, gently vortexed, and spun down before the run. The volumes were adjusted accordingly in some instances where the reaction was carried in 20 uL. The table below summarizes the components of the RT-qPCR reactions:
(§7) The RT-qPCR reaction was performed using a QuantStudio (ThermoFisher) under the following fast cycling conditions. […]
In general terms: In qPCR the cycle at which signal appears reflects the starting amount.

A further assay relates to Target C CJ mRNA. Kind of assay: Gene panel canonical junction qPCR assay: decrease in Target C CJ mRNA. To be noted: protocol as for Table 2, read-out: Target C (IC50, decrease in CJ mRNA levels). How it is done: as §1, §2, §3, §4, §5, §6, §7
Assay [1] has as its system HTT mRNA, canonical junction (CJ). Kind of assay: Splicing assay (RT-qPCR): decrease in HTT canonical junction (CJ) mRNA. Conditions: A673 or K562 cell line, 24 hours treatment, top dose 10 uM; concentration having 50% response in CJ decrease. How it is done: as §1
(§8) • Cells-to-CT 1-step kit: ThermoFisher A25602, Cells-to-CT lysis reagent: ThermoFisher 4391851C, TaqMan™ Fast Virus 1-Step Master Mix: ThermoFisher 4444436 • GAPDH: VIC-PL, ThermoFisher 4326317E (Assay: Hs99999905_ml)—used for K562/suspension cell lines • GUSB: VIC-PL, ThermoFisher 4326320E (Assay: Hs99999908_ml)—used for K562/suspension cell lines • PPIA: VIC-PL, ThermoFisher 4326316E (Assay: Hs99999904_ml)—used for A673/adherent cell lines
as §2, §3, §4
(§9) In some cases, a direct lysis buffer was used. An appropriate volume of 3× lysis buffer (10 mM Tris, 150 mM NaCl, 1.5%-2.5% Igepal and 0.1-1 U/uL RNAsin, pH 7.4) was directly added to either K562 or A673 cells in media and mixed by pipetting 3 times. The plates were then incubated at room temperature with shaking/rocking for 20-50 minutes to allow for lysis to take place. After this time, the cell lysate plate was transferred to ice to set up for the RT-qPCR reactions. The lysates could also be frozen at −80° C. for later use. […]

The next assay deals with SMN2 CJ mRNA. As to the kind of experiment: Gene panel canonical junction qPCR assay: decrease in SMN2 CJ mRNA. To be noted: protocol as for Table 2, read-out: SMN2 (IC50, decrease in CJ mRNA levels). How it is done: as §1, §2, §3, §4, §5, §6, §7
Assay [2] concerns HTT mRNA, alternative junction (AJ). As to the kind of experiment: Splicing assay (RT-qPCR): increase in HTT alternative junction (AJ) mRNA. To be noted: A673 or K562 cell line, 24 hours treatment, top dose 10 uM; concentration having 50% response in AJ increase. How it is done: as §1, §8, §2, §3, §4, §9

On to `Cc1nc2c(F)cc(NC(=O)c3ccc(N4CCNCC4)c4ccnnc34)cc2o1` [Compound 117, N-(4-fluoro-2-methyl-1,3-benzoxazol-6-yl)-5-(piperazin-1-yl) cinnoline-8-carboxamide], for which the IC50 – broadly, the concentration that inhibits the measured activity by half – in the assay on HTT CJ mRNA was 1000 to 10000 nM; in the assay with Target C CJ mRNA, 1000 to 10000 nM; in the assay on SMN2 CJ mRNA, less than 100 nM. Besides, the AC50 in assay [1] and in assay [2] was 1000 to 10000 nM throughout.
Consider `Cc1nc2c(F)cc(NC(=O)c3ccc(N4CCNCC4)c4ccnnc34)cc2s1` [Compound 118, N-(4-fluoro-2-methyl-1,3-benzothiazol-6-yl)-5-(piperazin-1-yl) cinnoline-8-carboxamide], for which the IC50 is 100 to 1000 nM in the assay on HTT CJ mRNA, 100 to 1000 nM in the assay on Target C CJ mRNA and less than 100 nM with SMN2 CJ mRNA. Further, the AC50 in assay [1] and in assay [2] was 100 to 1000 nM throughout.
For `Cc1cn2cc(NC(=O)c3ccc(N4CCNCC4)c4ccnnc34)c(C)cc2n1` [Compound 119, N-[2,7-dimethylimidazo[1,2-a]pyridin-6-yl]-5-(piperazin-1-yl) cinnoline-8-carboxamide], the IC50 in the assay with HTT CJ mRNA was 1000 to 10000 nM; in the assay on Target C CJ mRNA, 1000 to 10000 nM; in the assay on SMN2 CJ mRNA, less than 100 nM. Moreover, the AC50 in assay [1] and in assay [2] was 1000 to 10000 nM in each case.
For the compound `Cc1cn2cc(NC(=O)c3ccc(N4CCNCC4)c4ccnnc34)ncc2n1` [Compound 120, N-[2-methylimidazo[1,2-a]pyrazin-6-yl]-5-(piperazin-1-yl) cinnoline-8-carboxamide], the half-inhibitory concentration (IC50) in the assay with HTT CJ mRNA is greater than 10000 nM; in the assay with Target C CJ mRNA, greater than 10000 nM; in the assay on SMN2 CJ mRNA it was less than 100 nM. Besides, the AC50 in assay [1] and in assay [2] was greater than 10000 nM throughout.
With `Cc1cn2nc(NC(=O)c3ccc(N4CCNCC4)c4ccnnc34)nc2c(C)n1` [Compound 122], the IC50 in the assay with HTT CJ mRNA, in the assay with Target C CJ mRNA and in the assay with SMN2 CJ mRNA was 1000 to 10000 nM throughout. Besides, the AC50 in assay [1] and in assay [2] was 1000 to 10000 nM in each case.
With `Cc1cn2nc(NC(=O)c3ccc(N4CCNCC4)c4ccnnc34)cc2c(C)n1` [Compound 123, N-[4,6-dimethylpyrazolo[1,5-a]pyrazin-2-yl]-5-(piperazin-1-yl)cinnoline-8-carboxamide], the IC50 in the assay with HTT CJ mRNA, in the assay on Target C CJ mRNA and with SMN2 CJ mRNA was 1000 to 10000 nM each time. Moreover, the AC50 in assay [1] and in assay [2] was 1000 to 10000 nM in each case.
`Cc1cn2cc(NC(=O)c3ccc(N4CCNCC4)c4ccnnc34)cc(Cl)c2n1` [Compound 124, N-[8-chloro-2-methylimidazo[1,2-a]pyridin-6-yl]-5-(piperazin-1-yl)cinnoline-8-carboxamide]: the IC50 with HTT CJ mRNA is 1000 to 10000 nM; with Target C CJ mRNA it was 1000 to 10000 nM; in the assay with SMN2 CJ mRNA it was less than 100 nM. The AC50 in assay [1] and in assay [2] was 1000 to 10000 nM each time.
In the case of `Cc1cn2cc(NC(=O)c3ccc(N4CCNCC4)c4ccnnc34)cc(C)c2n1` [Compound 125, N-[2,8-dimethylimidazo[1,2-a]pyridin-6-yl]-5-(piperazin-1-yl)cinnoline-8-carboxamide], the IC50 with HTT CJ mRNA was 1000 to 10000 nM; with Target C CJ mRNA it was 1000 to 10000 nM; in the assay with SMN2 CJ mRNA, less than 100 nM. Besides, the AC50 in assay [1] and in assay [2] was 1000 to 10000 nM each time.
Take `O=C(Nc1cn[nH]c1)c1ccc(N2CCNCC2)c2ccnnc12` [Compound 126, 5-(piperazin-1-yl)-N-(1H-pyrazol-4-yl)cinnoline-8-carboxamide]: the IC50 in the assay with HTT CJ mRNA, in the assay on Target C CJ mRNA and in the assay with SMN2 CJ mRNA was greater than 10000 nM throughout. The AC50 in assay [1] and in assay [2] was greater than 10000 nM each time.
On to `Cc1cn2cc(NC(=O)c3ccc(N4CCN(C)CC4)c4ccnnc34)cc(F)c2n1` [Compound 127, N-[8-fluoro-2-methylimidazo[1,2-a]pyridin-6-yl]-5-(4-methylpiperazin-1-yl) cinnoline-8-carboxamide], for which the IC50 with HTT CJ mRNA is 1000 to 10000 nM; in the assay on Target C CJ mRNA it was 1000 to 10000 nM; in the assay on SMN2 CJ mRNA it was less than 100 nM. Besides, the AC50 in assay [1] and in assay [2] was 1000 to 10000 nM throughout.
As for `Cc1cn2cc(NC(=O)c3ccc(N4CCNC(C)C4)c4ccnnc34)cc(F)c2n1` (stereo not shown) [Compound 128, N-[8-fluoro-2-methylimidazo[1,2-a]pyridin-6-yl]-5-(3-methylpiperazin-1-yl) cinnoline-8-carboxamide], the half-maximal inhibitory concentration (IC50) with HTT CJ mRNA was 100 to 1000 nM; with Target C CJ mRNA it was 100 to 1000 nM; with SMN2 CJ mRNA, less than 100 nM. The AC50 in assay [1] and in assay [2] was 100 to 1000 nM each time.
On to `Cc1cn2cc(NC(=O)c3ccc(N4CC5(CNC5)C4)c4ccnnc34)cc(F)c2n1` [Compound 131, 5-[2,6-diazaspiro[3.3]heptan-2-yl]-N-[8-fluoro-2-methylimidazo[1,2-a]pyridin-6-yl]cinnoline-8-carboxamide], for which the concentration for half-maximal inhibition (IC50) in the assay with HTT CJ mRNA is 1000 to 10000 nM; with Target C CJ mRNA it was 100 to 1000 nM; with SMN2 CJ mRNA, less than 100 nM. Further, the AC50 in assay [1] and in assay [2] was 1000 to 10000 nM in each case.
For the compound `Cc1cn2cc(NC(=O)c3ccc(N4CC5(CN(C)C5)C4)c4ccnnc34)cc(F)c2n1` [Compound 132, N-[8-fluoro-2-methylimidazo[1,2-a]pyridin-6-yl]-5-[6-methyl-2,6-diazaspiro[3.3]heptan-2-yl]cinnoline-8-carboxamide], the figures for the IC50 with HTT CJ mRNA, in the assay on Target C CJ mRNA and with SMN2 CJ mRNA were 1000 to 10000 nM, less than 100 nM and less than 100 nM, respectively. Moreover, the AC50 in assay [1] and in assay [2] was 1000 to 10000 nM each time.
For `Cc1cn2cc(NC(=O)c3ccc(N4CCC(N5CCCC5)C4)c4ccnnc34)cc(F)c2n1` (stereo not shown) [Compound 133, 5-[[1,3-bipyrrolidin]-1-yl]-N-[8-fluoro-2-methylimidazo[1,2-a]pyridin-6-yl]cinnoline-8-carboxamide], the results for the IC50 with HTT CJ mRNA, in the assay on Target C CJ mRNA and in the assay with SMN2 CJ mRNA were 1000 to 10000 nM, 1000 to 10000 nM and less than 100 nM, respectively. The AC50 in assay [1] and in assay [2] was 1000 to 10000 nM each time.
